In one assay the target is T1, Human BLT2 (Homo sapiens, UniProt Q9NPC1).
T1 sequence (Q9NPC1 1-358): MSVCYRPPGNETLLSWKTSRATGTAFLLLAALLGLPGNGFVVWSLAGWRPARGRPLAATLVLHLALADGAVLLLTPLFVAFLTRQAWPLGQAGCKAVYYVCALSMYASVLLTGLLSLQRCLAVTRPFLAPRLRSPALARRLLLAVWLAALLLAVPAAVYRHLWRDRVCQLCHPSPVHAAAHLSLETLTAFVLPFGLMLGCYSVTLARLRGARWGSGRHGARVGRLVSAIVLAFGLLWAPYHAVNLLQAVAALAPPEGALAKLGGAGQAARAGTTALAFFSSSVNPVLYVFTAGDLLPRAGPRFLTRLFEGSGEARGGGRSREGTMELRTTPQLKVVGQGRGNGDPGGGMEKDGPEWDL
The settings on record: cited from earlier work.

Assay [1] concerns immune complex induced lung injury. The assay can be described thus: Immune complex induced lung disease (intranasal anti-Ova antibody). The assay is classed as in vivo, mouse. As for the experimental part: Recombinant OmCI was given at 0, 50, 100 and 250 μg intravenously together with 300 μg Ova containing 0.3% Evans blue (EB). […] MK886 is a leukotriene synthesis inhibitor. MK886 was administered with 300 μg Ova containing 0.3% Evans blue (EB) as a positive control.

Assay [2] deals with LTB4 induced skin reaction. In words: Local skin reaction induced by topical application of LTB4. The assay is classed as in vivo, human. As for the experimental part:
Reactions appear after 12 hours and peak at 24-48 hours.
The solutions were then applied to the flexor surface of the forearm and air dried. […] The deposits were occluded under a chamber which was removed after 6 hours. Skin reactions were observed from 12-96 hours.
Solutions were incubated for 10 minutes at room temperature then applied to the flexor surface of the forearm and air dried. […] The deposits were occluded under a chamber which was removed after 6 hours. Skin reactions were observed from 12-96 hours.

Assay [3] is described as follows: LTB4 binding by UV absorbance after ultrafiltration. As for the experimental part: The mixture was concentrated to 200 μl in Vivaspin (Sartorious) 5 kDa cut off ultrafiltration device. The retentate was washed with a further 30 mL of PBS and concentrated to 200 μl. In parallel, the same amount (4.5 mg) of bOmCI was incubated with 1.8 ml ultrapure ethanol in 39 mL PBS, then concentrated and washed as described above. The final volume of the concentrated proteins was 200 μl. UV absorption spectra of the proteins were examined using a Nanodrop ND-1000 Spectrophotometer.

The nature of assay [4]: Competitive enzyme immunoassay (EIA) for 12(S)-HETE binding. The settings on record: for proportion of 12(S)-HETE bound: 634 molar excess OmCI to 12(S)-HETE, 12500 pg/mL 12(S)-HETE (FIG. 5). As for the experimental part:
Competitive enzyme immunoassays (EIAs) from Assay Designs Inc. are available for the quantification of a number of the eicosanoids. One such EIA kit uses a polyclonal antibody to 12(S)-HETE to bind 12(S)-HETE labelled with alkaline phosphatase and competing unlabelled 12(S)-HETE in the sample or standards of known concentration. After simultaneous incubation at room temperature and capture of the antibody on the plate, the excess reagents are washed away, the substrate added and reaction measured by microplate reader. The higher the concentration of 12(S)-HETE in sample or standard the lower the absorbance reading, because the unlabelled fatty acid competes for binding with the alkaline phosphatase labelled molecule.
12(S)-HETE EIA Kit was from Assay Designs (Cat. No. 900-050). OmCI stocks used were expressed either in yeast (yOmCI) or bacteria (bOmCI). Both stocks were ≧98% pure, 8.3 mg/mL in phosphate buffered saline pH 7.2 (PBS). The negative control tick histamine binding protein RaHBP2, which is also a lipocalin (Paesen et al., 1999), was expressed in bacteria and was also ≧98% pure, 8.3 mg/mL in PBS. 12(S)-HETE standard was diluted to 50000, 12500, 3125, 781, 195 pg/mL in the assay buffer supplied with the kit. 100 μl of the 12500, 3125 and 0 pg/mL solutions were mixed with ≦9 μl of phosphate buffered saline pH 7.2 (PBS) or solutions of OmCI or RaHBP2 in PBS. The mixtures were incubated at room temperature for 20 minutes then used in the 12(S)-HETE immunoassay in accordance with the manufacturers instructions. The absorbance readings of the treated samples were compared with a standard curve to estimate the concentration of 12(S)-HETE available in solution for binding by the anti-12(S)-HETE polyclonal antibody.
Similar methods to those described in Example 1 were used.

A short description of assay [5]: Competitive EIA for thromboxane B2 binding. As to the method:
(§1) 100 μl of the standard solutions were mixed with ≦90 of PBS or diluted stock solutions of OmCI or RaHBP2. The mixtures were incubated at room temperature for 20 minutes then used in the immunoassays in accordance with the manufacturers instructions. The absorbance readings of the treated samples were compared with a standard curve to estimate the concentration of eicosanoids available in solution for binding by the anti-eicosanoid polyclonal antibodies.

A short description of assay [6]: Competitive EIA for cysteinyl leukotriene binding. The settings on record: data not shown. As for the experimental part:
as §1

A short description of assay [7]: LTB4 EIA using only LTB4-AP conjugate as ligand. The assay is classed as binding. The settings on record: for comparison of LTB4-AP binding by yOmCI and bOmCI: equivalent concentrations (FIG. 9). As to the method: as §1
Assay [8] is described as follows: Competitive EIA for LTB4 with unlabelled LTB4. The assay is classed as binding. As to conditions: 750 pg/mL LTB4 added (FIG. 7). As for the experimental part: as §1
Setting [9] is: 50 μg intravenous (legend of FIG. 16).
Setting [10] is: 100 μg intravenously 15 min prior to intranasal OVA antibody.
The mark [11] stands for this setting: Example 5, bOmCI 33×, 16×, 7×, 2× or ovalbumin 15×, 3×, 1× molar excess, forearm (FIG. 12).
The mark [12] stands for this setting: AP conjugate only, data not shown.

For the compound `CCCCC/C=C\C[C@@H](O)/C=C/C=C/C=C\[C@@H](O)CCCC(=O)O` [LTB4, leukotriene B4], the “lower affinity of BLT2 than BLT1 for LTB4” value at Human BLT2 was 20 fold.
On to `CC(C)c1ccc2c(c1)c(SC(C)(C)C)c(CC(C)(C)C(=O)O)n2Cc1ccc(Cl)cc1` [MK886, reference compound], for which the “microvascular damage and inflammation” value in [1] (positive control (FIG. 16)) is given as “reduced dramatically”.
For the compound “OmCI preloaded with LTB4: bOmCI with LTB4 loaded into the binding pocket (example 6)”, the “inhibitory effect on immune complex induced disease after saturation of the LTB4 binding site” value in assay [1] (OmCI preloaded with LTB4 (FIG. 16)) is given as “attenuated the inhibitory effect of OmCI although it did not abrogate the response”. In assay [2] (Example 8, 4:1 molar ratio, preloaded protein), the “skin reaction induced by 100 ng LTB4” value is “did not prevent the skin reaction”.
“OmCI: soft tick derived complement (C) inhibitor of Ornithodoros moubata, SEQ ID NO: 2 / 3; binds C5 and LTB4”: the “dose dependence of effect” value in assay [1] (0, 50, 100 and 250 μg intravenously, data not shown) is given as “dose dependent”. In [1] (setting [9]), the “neutrophil recruitment in the lung” value is listed as “reduces neutrophil recruitment in the lung”; the “vascular permeability and protein exudation” value is “decreases vascular permeability and protein exudation”. In [1] (setting [10]), the “neutrophil recruitment in the lung” value is listed as “reduced neutrophil recruitment in the lung”; the “pulmonary microvascular damage and protein exudations in the bronchoalveolar space” value is listed as “reduced protein exudations”. Moreover, in assay [2] (setting [11]), the “skin reaction induced by 100 ng LTB4” value is on record as “completely ablated”. Moreover, the “skin reaction induced by 100 ng LTB4” value in assay [2] (Example 8, 4:1 to 1:1 molar ratio (FIG. 15)) is on record as “ablated the skin reaction”. The “lesion formation compared to LTB4 alone” value in assay [2] (Example 8, molar ratios 0.5:1 and less) was “no effect on lesion formation”. Moreover, the “LTB4 binding stoichiometry and affinity” value in assay [3] (conclusion from examples 6 and 7) is “binds to a single molecule of LTB4 with high affinity”.
As for “Ovalbumin: negative control protein ovalbumin (Mr 45 kDa) [reference compound]”, the “skin reaction induced by 100 ng LTB4” value in assay [2] (setting [11]) is recorded as “no effect on lesion formation”. For the same compound, the lesion formation result in [2] (Example 8, negative control protein) is given as “no inhibitory effect on lesion formation”.
As for bOmCI: bacterial expressed OmCI, the “proportion of 12(S)-HETE bound” value in assay [4] was 97%. For the same compound, the “amount of 12(S)-HETE available in solution for antibody binding” value in assay [4] (20 min preincubation with 12500 pg/mL 12(S)-HETE, 41.2 μg protein (FIG. 2)) is “decreases the amount of 12(S)-HETE available in solution”. Besides, the “direct binding of 12(S)-HETE-AP conjugate” value in assay [4] (setting [12]) is reported as “not bound directly”. In assay [4] (overnight at room temperature (FIG. 4)), the “effect of prolonged incubation on proportion of 12(S)-HETE bound” value is reported as “does not increase the proportion of 12(S)-HETE bound”. In addition, the “binding of TXB2” value in assay [5] (3333 pg/mL TXB2 (FIG. 6)) is on record as “does not appear to bind”. Besides, the “direct binding of TXB2-AP conjugate” value in assay [5] (setting [12]) is on record as “not bound directly”. Besides, the “direct binding of cys-LK-AP conjugate” value in assay [6] (AP conjugate only) was “not bound directly”. For the same compound, in assay [6], the “binding of Cys-LKs” value is given as “does not appear to bind”. Further, the “competition of excess 12(S)-HETE with LTB4-AP binding” value in [7] (8.24 μg bOmCI (FIG. 10)) is listed as “does not outcompete”. For the same compound, in assay [7] (FIG. 8), the “amount of protein that binds approximately 50% of the LTB4-AP” value is 0.33 µg. Moreover, in assay [7] (calculated assuming 100% conjugation efficiency and IC50=1:1 binding), the “excess of protein needed to bind 50% of the LTB4-AP” value is recorded as 1200 ×. The “binding to LTB4-AP” value in [7] (dilution series, 50 μL LTB4-AP, no unlabelled LTB4 (FIG. 8)) is “dose dependent binding”. Also, the “comparison of LTB4-AP binding by yOmCI and bOmCI” value in assay [7] is reported as “fairly similar”. Also, the “LTB4 bound from solution” value in assay [3] (1:1 molar ratio OmCI:LTB4, flow through of ultrafiltration (FIG. 13A)) is “all the LTB4 added to initial mixture was bound”. Also, the “estimated concentration of LTB4 in solution” value in [8] is reported as 10000 pg/mL.
Turning to yOmCI: yeast expressed OmCI, the “proportion of 12(S)-HETE bound” value in assay [4] is given as “roughly 50%”. In addition, the “comparison of LTB4-AP binding by yOmCI and bOmCI” value in assay [7] was “fairly similar”.

(Values after patent publication US20110059885A1, “TREATMENT OF DISEASES AND CONDITIONS MEDIATED BY EICOSANOIDS” (Natural Environment Research Council, priority 2008, published 2011).)
